Experimental data reported in US9296741B2, “Bromodomain inhibitors” (priority 2012, dated 2016).
Values belong to the compound of their own block, whether it stands above or below them.

Tests used:
[1] = Human liver microsome stability assay; type: in vitro ADME; details: both sexes, human, microsomes, pH 7.4
[2] = system: breast cancer cell line MX-1; assay: MX-1 cell line proliferation assay; type: cell-based, human; details: Homo sapiens, MX1, 72 h; MX-1 cells, 3-day proliferation, Cell Titer Glo; read-out: Cellular proliferation: EC50
[3] = target: human BRD4 first bromodomain (BDI_K57-E168) (Homo sapiens (Human), UniProt O60885); assay: TR-FRET bromodomain binding assay, BRD4 first bromodomain
[4] = Rat liver microsome stability assay; type: in vitro ADME; details: rat liver microsomes (male Sprague-Dawley), 0.5 μM test compound, pH 7.4, 37° C.; for half-life at 0.5 μM: 0.25 mg/mL microsomal protein, read-out: Stability in rat liver microsomes (t1/2 in minutes); for Stability in rat liver microsomes (t1/2 in minutes): […] microsomal protein
[5] = Mouse liver microsome stability assay; type: in vitro ADME; details: male, CD1, mouse, microsomes, pH 7.4
[6] = target: human BRD4 second bromodomain (BDII_E352-M457) (Homo sapiens (Human), UniProt O60885); assay: TR-FRET bromodomain binding assay, BRD4 second bromodomain

- half-life at 0.5 μM [1]: 19 min
- EC50 [2]: 24.4 nM
- Ki [3]: 2.6 nM
- Stability in rat liver microsomes (t1/2 in minutes) [4]: 1 min
- half-life at 0.5 μM [5]: 9 min
- Ki [6]: 3.9 nM
Compound: CN(c1ccc(Oc2ccccc2)c(-c2cn(C)c(=O)c3[nH]ccc23)c1)S(C)(=O)=O [Example 8, N-methyl-N-[3-(6-methyl-7-oxo-6,7-dihydro-1H-pyrrolo[2,3-c]pyridin-4-yl)-4-phenoxyphenyl]methanesulfonamide]

- half-life at 0.5 μM [1]: 78 min
- EC50 [2]: > 3000 nM
- Ki [3]: 15.4 nM
- half-life at 0.5 μM [4]: > 120 min
- half-life at 0.5 μM [5]: > 120 min
- Ki [6]: 8.6 nM
Compound: Cn1cc(-c2cc(C(=O)O)ccc2Oc2ccccc2)c2cc[nH]c2c1=O [Example 10, 3-(6-methyl-7-oxo-6,7-dihydro-1H-pyrrolo[2,3-c]pyridin-4-yl)-4-phenoxybenzoic acid]

- half-life at 0.5 μM [1]: 37 min
- EC50 [2]: 170 nM
- Ki [3]: 5.5 nM
- half-life at 0.5 μM [4]: 6 min
- half-life at 0.5 μM [5]: 8 min
- Ki [6]: 12.3 nM
Compound: Cn1cc(-c2cc(C(=O)NCC3CCCO3)ccc2Oc2ccccc2)c2cc[nH]c2c1=O (stereo not drawn) [Example 14, 3-(6-methyl-7-oxo-6,7-dihydro-1H-pyrrolo[2,3-c]pyridin-4-yl)-4-phenoxy-N-(tetrahydrofuran-2-ylmethyl)benzamide]

- half-life at 0.5 μM [1]: 10 min
- EC50 [2]: 140 nM
- Ki [3]: 4.2 nM
- half-life at 0.5 μM [4]: 4 min
- half-life at 0.5 μM [5]: 7 min
- Ki [6]: 7.5 nM
Compound: Cn1cc(-c2cc(C(=O)NC3CCCC3)ccc2Oc2ccccc2)c2cc[nH]c2c1=O [Example 15, N-cyclopentyl-3-(6-methyl-7-oxo-6,7-dihydro-1H-pyrrolo[2,3-c]pyridin-4-yl)-4-phenoxybenzamide]

- half-life at 0.5 μM [1]: 92 min
- EC50 [2]: 123 nM
- Ki [3]: 7.4 nM
- half-life at 0.5 μM [4]: 13 min
- half-life at 0.5 μM [5]: 33 min
- Ki [6]: 4.2 nM
Compound: Cn1cc(-c2cc(C(N)=O)ccc2Oc2ccccc2)c2cc[nH]c2c1=O [Example 19, 3-(6-methyl-7-oxo-6,7-dihydro-1H-pyrrolo[2,3-c]pyridin-4-yl)-4-phenoxybenzamide]

- half-life at 0.5 μM [1]: 18 min
- EC50 [2]: 190 nM
- Ki [3]: 10.9 nM
- Stability in rat liver microsomes (t1/2 in minutes) [4]: 1 min
- half-life at 0.5 μM [5]: 7 min
- Ki [6]: 0.68 nM
Compound: Cn1cc(-c2cc(CO)ccc2Oc2ccccc2)c2cc[nH]c2c1=O [Example 20, 4-[5-(hydroxymethyl)-2-phenoxyphenyl]-6-methyl-1,6-dihydro-7H-pyrrolo[2,3-c]pyridin-7-one]

- half-life at 0.5 μM [1]: > 120 min
- EC50 [2]: 13.9 nM
- Ki [3]: 0.39 nM
- half-life at 0.5 μM [4]: 3 min
- half-life at 0.5 μM [5]: 22 min
- Ki [6]: 0.25 nM
Compound: CCS(=O)(=O)Nc1ccc(Oc2ccccc2)c(-c2cn(C)c(=O)c3[nH]ccc23)c1 [Example 21, N-[3-(6-methyl-7-oxo-6,7-dihydro-1H-pyrrolo[2,3-c]pyridin-4-yl)-4-phenoxyphenyl]ethanesulfonamide]

- half-life at 0.5 μM [1]: 56 min
- EC50 [2]: 39.8 nM
- Ki [3]: 1.8 nM
- half-life at 0.5 μM [4]: > 120 min
- half-life at 0.5 μM [5]: 19 min
- Ki [6]: 13.4 nM
Compound: Cn1cc(-c2cc(NS(C)(=O)=O)ccc2OC2CCOC2)c2cc[nH]c2c1=O (stereo not drawn) [Example 31, N-[3-(6-methyl-7-oxo-6,7-dihydro-1H-pyrrolo[2,3-c]pyridin-4-yl)-4-(tetrahydrofuran-3-yloxy)phenyl]methanesulfonamide]

- half-life at 0.5 μM [1]: > 120 min
- EC50 [2]: 41.7 nM
- Ki [3]: 2.6 nM
- half-life at 0.5 μM [4]: > 120 min
- half-life at 0.5 μM [5]: 46 min
- Ki [6]: 4.8 nM
Compound: Cn1cc(-c2cc(NS(C)(=O)=O)ccc2Oc2ccc(C#N)cc2)c2cc[nH]c2c1=O [Example 33, N-[4-(4-cyanophenoxy)-3-(6-methyl-7-oxo-6,7-dihydro-1H-pyrrolo[2,3-c]pyridin-4-yl)phenyl]methanesulfonamide]

- half-life at 0.5 μM [1]: 88.9 min
- EC50 [2]: 59.3 nM
- Ki [3]: 11.3 nM
- half-life at 0.5 μM [4]: 54 min
- half-life at 0.5 μM [5]: 3 min
- Ki [6]: 10.8 nM
Compound: CC(=O)Nc1ccc(Oc2ccc(F)cc2F)c(-c2cn(C)c(=O)c3[nH]ccc23)c1 [Example 37, N-[4-(2,4-difluorophenoxy)-3-(6-methyl-7-oxo-6,7-dihydro-1H-pyrrolo[2,3-c]pyridin-4-yl)phenyl]acetamide]

The remaining lines, values behind:

Compound: Cc1ccc(S(=O)(=O)n2ccc3c(-c4cc(NS(C)(=O)=O)ccc4Oc4ccccc4)cn(C)c(=O)c32)cc1 [Example 7, N-(3-{6-methyl-1-[(4-methylphenyl)sulfonyl]-7-oxo-6,7-dihydro-1H-pyrrolo[2,3-c]pyridin-4-yl}-4-phenoxyphenyl)methanesulfonamide]
- half-life at 0.5 μM [1]: 12 min
- EC50 [2]: > 3000 nM
- Ki [3]: 119 nM
- half-life at 0.5 μM [4]: 2 min
- half-life at 0.5 μM [5]: 4 min
- Ki [6]: 77.3 nM

Compound: CCNC(=O)c1ccc(Oc2ccccc2)c(-c2cn(C)c(=O)c3[nH]ccc23)c1 [Example 13, N-ethyl-3-(6-methyl-7-oxo-6,7-dihydro-1H-pyrrolo[2,3-c]pyridin-4-yl)-4-phenoxybenzamide]
- half-life at 0.5 μM [1]: 66 min
- EC50 [2]: 128 nM
- Ki [3]: 3.7 nM
- half-life at 0.5 μM [4]: 2 min
- half-life at 0.5 μM [5]: 22 min
- Ki [6]: 3.4 nM

Compound: Cn1cc(-c2cc(C(=O)NCC(F)F)ccc2Oc2ccccc2)c2cc[nH]c2c1=O [Example 16, N-(2,2-difluoroethyl)-3-(6-methyl-7-oxo-6,7-dihydro-1H-pyrrolo[2,3-c]pyridin-4-yl)-4-phenoxybenzamide]
- half-life at 0.5 μM [1]: > 120 min
- EC50 [2]: 94.6 nM
- Ki [3]: 4.3 nM
- half-life at 0.5 μM [4]: 4 min
- half-life at 0.5 μM [5]: 22 min
- Ki [6]: 5.3 nM

Compound: Cn1cc(-c2cc(C(=O)NC3CCS(=O)(=O)C3)ccc2Oc2ccccc2)c2cc[nH]c2c1=O (stereo not drawn) [Example 18, N-(1,1-dioxidotetrahydrothiophen-3-yl)-3-(6-methyl-7-oxo-6,7-dihydro-1H-pyrrolo[2,3-c]pyridin-4-yl)-4-phenoxybenzamide]
- half-life at 0.5 μM [1]: 31 min
- EC50 [2]: 209 nM
- Ki [3]: 10.2 nM
- half-life at 0.5 μM [4]: 11 min
- half-life at 0.5 μM [5]: 15 min
- Ki [6]: 10.3 nM

Compound: CN(C)S(=O)(=O)Nc1ccc(Oc2ccccc2)c(-c2cn(C)c(=O)c3[nH]ccc23)c1 [Example 22, N,N-dimethyl-N′-[3-(6-methyl-7-oxo-6,7-dihydro-1H-pyrrolo[2,3-c]pyridin-4-yl)-4-phenoxyphenyl]sulfuric diamide]
- half-life at 0.5 μM [1]: 32 min
- EC50 [2]: 65.2 nM
- Ki [3]: 2.2 nM
- half-life at 0.5 μM [4]: 3 min
- half-life at 0.5 μM [5]: 10.7 min
- Ki [6]: 1 nM

Compound: Cn1cc(-c2cc(NS(C)(=O)=O)cnc2Oc2ccccc2)c2cc[nH]c2c1=O [Example 23, N-[5-(6-methyl-7-oxo-6,7-dihydro-1H-pyrrolo[2,3-c]pyridin-4-yl)-6-phenoxypyridin-3-yl]methanesulfonamide]
- half-life at 0.5 μM [1]: 64 min
- EC50 [2]: 45.9 nM
- Ki [3]: 1.2 nM
- half-life at 0.5 μM [4]: 11 min
- half-life at 0.5 μM [5]: > 120 min
- Ki [6]: 0.75 nM

Compound: Cn1cc(-c2cc(NS(C)(=O)=O)ccc2OC2CCOCC2)c2cc[nH]c2c1=O [Example 29, N-[3-(6-methyl-7-oxo-6,7-dihydro-1H-pyrrolo[2,3-c]pyridin-4-yl)-4-(tetrahydro-2H-pyran-4-yloxy)phenyl]methanesulfonamide]
- half-life at 0.5 μM [1]: > 120 min
- EC50 [2]: 71.8 nM
- Ki [3]: 1.1 nM
- half-life at 0.5 μM [4]: 26 min
- half-life at 0.5 μM [5]: > 120 min
- Ki [6]: 6.7 nM
